# Patent publication US11026999B2, “Insulin glargine/lixisenatide fixed ratio formulation” (SANOFI-AVENTIS DEUTSCHLAND GMBH, priority 2013, dated 2021)
# Key:
# [1] = system: type 2 diabetic patients; assay: 7-point Self-Monitored Plasma Glucose (SMPG) profile (Example 1); assay type: in vivo, human; settings: mITT population
# Excerpt: In yet another aspect of the present invention, the composition as described herein can be used for improving average 7-point SMPG profile. […] Self-monitored plasma glucose (SMPG), as used herein, is in particular the “7-point Self Monitored Plasma Glucose”. “7-point Self Monitored Plasma Glucose” in particular refers to the measurement of plasma glucose seven times a day and calculation of the average plasma glucose concentration therefrom. The “7-point Self Monitored Plasma Glucose” value is in particular an average plasma glucose concentration including fasting and postprandial conditions. In particular, measurements of plasma glucose concentration are performed pre-breakfast, post-breakfast (e.g. 2-hour post-breakfast), pre-lunch, post-lunch (e.g. 2-hour post-lunch), pre-dinner, post-dinner (e.g. 2-hour post-dinner) and at bedtime (see also FIG. 3). The treatment by the combination of the present invention, as described herein, can improve the self-monitored plasma glucose.
# (§1) Criteria for Evaluation: • Efficacy: • Primary Endpoint: • Change in HbA1c from baseline to Week 24 • Secondary Endpoints: • Change in 2-hour PPG during meal test from baseline to Week 24 • Change in 2-hour plasma glucose excursion during meal test from baseline to Week 24 • Percentage of patients reaching HbA1c ≤6.5% or <7% at Week 24 • Change in 7-point SMPG profiles from baseline to Week 24 (each time point and mean daily value) • Change in body weight from baseline to Week 24, • Average daily Insulin glargine dose at Week 24 • Change in FPG from baseline to Week 24 • Percentage of patients requiring rescue therapy during the 24-week open-label treatment period • Change in 30-minute and 1-hour PPG and plasma glucose excursion during meal test from baseline to week 24 • Percentage of patients reaching HbA1c <7% at week 24 with no documented symptomatic hypoglycemia during the 24-week open label treatment period • Percentage of patients reaching HbA1c <7% with no weight gain at week 24
# (§2) All continuous secondary efficacy endpoints were analyzed using a similar ANCOVA model with treatment, randomization strata of screening HbA1c (<8%, ≥8%), randomization strata of screening BMI (<30 kg/m^2, ≥30 kg/m^2) and country as fixed effects and using the baseline value of the corresponding parameter as a covariate. Insulin glargine dose was not included in the ANCOVA model as a covariate since patients enrolled were insulin-naïve.
# [2] = system: type 2 diabetic patients; assay: 2-hour postprandial plasma glucose during standardized meal test (Example 1); assay type: in vivo, human; settings: mITT; for 2-hour postprandial plasma glucose change from baseline to Week 24 (LOCF), LS Mean (SE): ANCOVA
# Excerpt: as §1, §2
substance,measurement,setting,value
Gly(A21)-Arg(B31)-Arg(B32)-human insulin [Insulin Glargine],"Average 7-point SMPG at Week 24 (LOCF), Mean (SD)",[1],7.01 (1.15) mmol/L
same,"Average 7-point SMPG at Week 24 (LOCF), Median",[1],6.94 mmol/L
same,"Average 7-point SMPG change from baseline to Week 24 (LOCF), Mean (SD)",[1],−2.81 (2.18) mmol/L
same,"Average 7-point SMPG change from baseline to Week 24 (LOCF), Median",[1],-2.31 mmol/L
same,"Average 7-point SMPG change from baseline to Week 24 (LOCF), LS Mean (SE)",[1]; ANCOVA,−2.93 (0.101) mmol/L
same,"2-hour postprandial plasma glucose at Week 24 (LOCF), Mean (SD)",[2],11.55 (2.83) mmol/L
same,"2-hour postprandial plasma glucose at Week 24 (LOCF), Median",[2],11.10 mmol/L
same,"2-hour postprandial plasma glucose change from baseline to Week 24 (LOCF), Mean (SD)",[2],−3.96 (4.05) mmol/L
same,"2-hour postprandial plasma glucose change from baseline to Week 24 (LOCF), Median",[2],-3.90 mmol/L
same,"2-hour postprandial plasma glucose change from baseline to Week 24 (LOCF), LS Mean (SE)",[2],−4.33 (0.274) mmol/L
same,"2-hour postprandial plasma glucose change from baseline to Week 24 (LOCF), LS Mean (SE)",[2]; listed as insulin glargine,-4.33 mmol/L
